Target: T1, pancreatic α-amylase (Sus scrofa, UniProt P00690)
T1 construct: gene AMY2
T1 sequence (P00690 16-511): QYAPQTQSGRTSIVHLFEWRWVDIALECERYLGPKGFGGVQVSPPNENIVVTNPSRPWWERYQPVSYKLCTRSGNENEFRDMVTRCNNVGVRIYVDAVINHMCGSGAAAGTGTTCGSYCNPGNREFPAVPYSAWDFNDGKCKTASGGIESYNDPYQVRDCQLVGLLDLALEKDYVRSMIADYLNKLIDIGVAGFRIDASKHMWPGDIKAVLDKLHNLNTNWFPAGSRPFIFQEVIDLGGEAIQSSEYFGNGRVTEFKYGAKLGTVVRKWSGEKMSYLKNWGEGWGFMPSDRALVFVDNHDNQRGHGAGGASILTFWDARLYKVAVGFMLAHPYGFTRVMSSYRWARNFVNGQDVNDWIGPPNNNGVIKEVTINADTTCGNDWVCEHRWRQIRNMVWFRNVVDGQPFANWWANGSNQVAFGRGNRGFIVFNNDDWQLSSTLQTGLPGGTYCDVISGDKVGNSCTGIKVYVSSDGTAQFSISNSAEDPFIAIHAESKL
Assay: starch hydrolysis inhibition assay with DNS readout at […] nm; Lineweaver-Burk kinetics
Type: biochemical

IC50: 24.4 ± 0.1 µM
Compound: C[C@@H]1O[C@@H](OC[C@H]2O[C@@H](Oc3cc4c(O)cc(O)cc4[o+]c3-c3ccc(O)c(O)c3)[C@H](O)[C@@H](O)[C@@H]2O)[C@H](O)[C@H](O)[C@H]1O [C3R, Cyanidin-3-rutinoside]
